Test results taken from patent US20090137493A1, “Inhibition of tumor metastases using protein kinase C (PKC) inhibitors” (priority 2007, published 2009).
Bridges are numbered along the chain shown (N, C = ends). Where no end group is shown, it is not given here.

How the values were obtained:
[1] = system: 4T1 murine mammary cancer cells; assay: Lung metastasis of luciferase-tagged 4T1 tumors in mice, imaging (relative light units); assay type: in vivo; details: 4T1-luciferase tumor-bearing mice, osmotic pump, about 35 mg/kg/day, four weeks
Method: To determine whether specific PKC inhibitors could reduce the amount of PKC translocation/activation in vivo and thereby reduce tumor cell metastasis, animals were administered an αPKC peptide inhibitor, or appropriate control, via an implanted osmotic pump, following the injection of luciferase-tagged tumor cells. […] The data are summarized in the bar graph shown in FIG. 4, along with similar data relating to the use of a βIIV5-3-TAT conjugate peptide (βPKC; SEQ ID NO: 27). The extent of lung metastasis is expressed as relative light units.
Balb/c female mice (6 weeks old) were injected semi-orthotopically with 4T1 murine mammary cancer cells tagged with luciferase ([…] cells/100 μL). One week later, an osmotic minipump was implanted subcutaneously in each animal, for delivery of saline (control), TAT peptide (control, YGRKKRRQRRR, SEQ ID NO: 25), the peptide inhibitor αV5-3 (QLVIAN, SEQ ID NO: 6) attached via an N-terminal disulfide bond to TAT peptide (YGRKKRRQRRR-CC-QLVIAN, SEQ ID NO: 26).
In other experiments, the peptide inhibitor βIIV5-3 (QEVIAN, SEQ ID NO: 13) or εV1-2 (EAVSLKPT, SEQ ID NO: 20) is attached via an N-terminal disulfide bond to the TAT peptide (SEQ ID NOs: 27 and 28, respectively). The TAT control, αV5-3-TAT, βIIV5-3-TAT, or εV1-2-TAT conjugate peptides are administered at about 35 mg/kg/day for two and four weeks.
After two weeks of treatment with αV5-3-TAT, some animals were selected form imaging (IVIS® 29, Xenogen Corporation, Alameda, Calif.) and analysis, with the remaining animals imaged after four weeks of treatment.
FIG. 4 is a bar graph showing the extent of lung metastasis, expressed as relative light units (based on imaging as exemplified in FIG. 3), in tumor-bearing mice treated for four weeks with saline, the αV5-3-TAT conjugate peptide (αPKC), or the βIIV5-3-TAT conjugate peptide (βPKC). The extent of lung metastasis, quantified approximately by the relative light units, for mice treated with saline, the αPKC inhibitor, and the βIIV5-3 PKC inhibitor peptide is shown. The extent of lung metastases is reduced in the animals treated with the αPKC inhibitor.

JC tumor cells = assay: Growth rate of JC tumor cells in vitro; assay type: cell-based, mouse; details: doses of 0, 1, 5 and 10 μM, compared to TAT carrier peptide control
Method: (§1) FIGS. 6B-6C are bar graphs showing the affect of the αV5-3-TAT peptide on growth rate of JC tumor cells (FIG. 6B) and 4T1 tumor cells (FIG. 6C) in vitro. The cells treated with the TAT carrier peptide (TAT) or with αV5-3-TAT peptide (PKC alpha inhibitor), at doses of 0, 1, 5, and 10 μM.
(§2) To determine if the effects observed with the α and βIIPKC peptide inhibitors was due to a decrease in metastasis as opposed to a decrease in primary tumor growth, animals injected with 4T1 tumor cells were treated with saline, the αV5-3-TAT conjugate peptide (αPKC), or the βIIV5-3-TAT conjugate peptide (βPKC) and the number of tumors cells at the primary site of injection were determined.

4T1 tumor cells = assay: Growth rate of 4T1 tumor cells in vitro; assay type: cell-based, mouse; details: doses of 0, 1, 5 and 10 μM, compared to TAT carrier peptide control
Method: as §1, §2

tumor cells = assay: Histology of lung tissue after fatpad implantation or intravenous injection of tumor cells; assay type: in vivo, mice; details: four weeks after fatpad implantation or two weeks after intravenous injection of tumor cells, versus TAT
Source text: FIGS. 8A-8B are computer-generated photomicrographs of lung tissue from mice four weeks following fatpad implantation of tumor cells. Osmotic pumps were implanted 1 week after fatpad implantation, for delivering TAT (control; FIG. 8A) or αV5-3-TAT peptide (PKC a inhibitor; FIG. 8B).
FIGS. 8C-8D are computer-generated photomicrographs of lung tissue from mice two weeks after intravenous injection of tumor cells. Osmotic pumps were implanted two days prior to […], for delivering TAT (control; FIG. 8C) or αV5-3-TAT peptide (PKC a inhibitor; FIG. 8D).
FIGS. 8A-8D are computer-generated photomicrographs of lung tissue from mice four weeks following fatpad implantation of tumor cells (FIGS. 8A-8B) or two weeks after intravenous injection of tumor cells (FIGS. 8C-8D).

[2] = system: matrix metalloproteinase 2 (MMP2); assay: MMP2 activity in tumor cells from treated animals; assay type: in vivo; details: cells from primary tumors of treated animals, versus saline or TAT, FIG. 10C
Source text: FIG. 10C is a bar graph showing the relative levels of matrix metalloproteinase 2 (MMP2) activity in tumor cells from animals treated with saline or TAT (untreated) or the αV5-3-TAT peptide (aV5-3).
Cells from primary tumors in animals treated with the αPKC inhibitor were also isolated and assayed for levels of CXCR4 (FIG. 10B) and levels of matrix metalloproteinase 2 (MMP2) activity (FIG. 10C).

[3] = Serum levels of liver enzymes AST and ALT in treated animals; assay type: in vivo
Source text: FIGS. 11A-11B are bar graphs showing the relative serum levels of liver enzymes aspartate transaminase (AST; FIG. 11A) and alanine transaminase (ALT; FIG. 11B) in animals treated with saline or TAT (untreated) or the αV5-3-TAT peptide (aV5-3). FIGS. 11C-11E are bar graphs showing the relative serum levels of white blood cells (FIG. 11C), lymphocytes (FIG. 11D), and neutrophils (FIG. 11E).

4T1 cells = assay: Wound healing (migration) assay, 4T1; assay type: cell-based, mouse; details: peptide 1 uM, re-applied every 2 h for 8 h
Method: FIGS. 16A-16D are micrographs showing the efficacy of TAT carrier peptide (TAT; FIG. 16A), αV5-3-TAT peptide (Alpha; FIG. 16B), βIIV5-3 peptide (Beta2; FIG. 16C), and εV1-2 (Epsilon; FIG. 16D) on 4T1 cell migration.
To investigate the role of PKC inhibitors in reducing the migration of tumor cells, in vitro migration assays were performed using MDA-MB-231 breast cancer cells (FIGS. 12A-12D), MCF-7 breast cancer cell (FIGS. 13A-13D), JC cells (FIGS. 15A-15D), and 4T1 cells (FIGS. 16A-16D), in the presence of TAT carrier peptide (TAT), αV5-3-TAT peptide (Alpha), βIIV5-3 peptide (Beta2), or εV1-2 peptide (Epsilon).
Wound healing assay: Human or mouse breast cancer cell lines were grown in 6-well plates until about 90% confluent. Cells were then grown in serum free media overnight, before media was changed to media +1% FBS and peptide PKC inhibitors added (1 uM), at the same time a pipette tip was drawn across the cell layer to create a scrape ‘wound’. PKC inhibitors were re-applied every 2 h for a total of 8 h, before cells were left for a further 12 h and then the scrape was examined under phase contrast microscopy.

Substance: YGRKKRRQRRR-CC-QLVIAN (YGRKKRRQRRRCCQLVIAN; disulfide 12-13 (inferred)) [αV5-3-TAT]
- effect on lung metastasis compared to control animals (in words) [1]: reduced
- reduction of lung metastasis compared to control animals [1]: 4 to 5 fold
- inhibition of growth of JC tumor cells in vitro (JC tumor cells): does not substantially inhibit
- inhibition of growth of 4T1 tumor cells in vitro (4T1 tumor cells): does not substantially inhibit
- invasion of lung tissues by tumor cells (histology) (tumor cells): reduced
- decrease of relative levels of MMP2 activity in tumor cells [2]: about 30%
- decrease of relative serum level of aspartate transaminase (AST) ([3]; treated animals versus saline or TAT, FIG. 11A): about 5 fold
- decrease of relative serum level of alanine transaminase (ALT) ([3]; treated animals versus saline or TAT, FIG. 11B): 4-5 fold
- serum AST/ALT levels (marker of damage or toxicity of the liver) ([3]; tumor-bearing treated animals): reversed abnormally elevated level of serum AST/ALT levels (a marker of damage or toxicity of the liver) to the normal range
- migration of 4T1 cells in vitro (4T1 cells): did not affect
